Laboratory results from patent US6355799B1, “Substituted benzene compounds, process for their preparation, and herbicidal and defoliant compositions containing them” (ISK Americas Incorporated, priority 1997, dated 2002).

Key:
Format in all cases: in vivo
[1] = system: redroot pigweed (Amaranthus retroflexus, AMARE); experiment: Pre-emerge test, greenhouse herbicide activity screening; conditions: pre-emerge, phytotoxicity rating 0-100 at 14 days after application
Outline: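 Visual ratings on a 0-100 scale (0 no damage, 100 all plants dead) were taken at 14 days after treatment. Rates of 15-1000 g ai/ha in acetone, 187 l/ha, were sprayed onto soil one day after planting (pre-emerge) or onto 2-3 leaf plants with 0.25% v/v surfactant (post-emerge).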

[2] = system: barnyardgrass (Echinochloa crus-galli, ECHCG); experiment: as above; conditions: pre-emerge, phytotoxicity rating 0-100 at 14 days after application
Outline: (§1)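 Rating: 0–100 visual injury, 14 DAA. Application: acetone, 187 l/ha, 15–1000 g ai/ha, flat-fan track sprayer with nozzle 40–45 cm above soil or canopy. Post-emerge runs used 0.25% v/v surfactant on 2–3 leaf plants.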

[3] = system: green foxtail (Setaria viridis, SETVI); experiment: as above; conditions: pre-emerge, phytotoxicity rating 0-100 at 14 days after application
Outline: as §1

[4] = system: ivyleaf morningglory (Ipomoea hederacea, IPOHE); experiment: as above; conditions: pre-emerge, phytotoxicity rating 0-100 at 14 days after application
Outline: as §1

[5] = system: johnsongrass (Sorghum halepense, SORHA); experiment: as above; conditions: pre-emerge, phytotoxicity rating 0-100 at 14 days after application
Outline: as §1

[6] = system: lambsquarters (Chenopodium album, CHEAL); experiment: as above; conditions: pre-emerge, phytotoxicity rating 0-100 at 14 days after application
Outline: as §1

[7] = system: large crabgrass (Digitaria sanguinalis, DIGSA); experiment: as above; conditions: pre-emerge, phytotoxicity rating 0-100 at 14 days after application
Outline: as §1

[8] = system: sicklepod (Cassia obtusifolia, CASOB); experiment: as above; conditions: pre-emerge, phytotoxicity rating 0-100 at 14 days after application
Outline: as §1

[9] = system: velvetleaf (Abutilon theophrasti, ABUTH); experiment: as above; conditions: pre-emerge, phytotoxicity rating 0-100 at 14 days after application
Outline: as §1

[10] = system: field corn (Zea mays L., var. Dekalb 535, CORN); experiment: Pre-emerge test, crop safety; conditions: crop damage, pre-emerge, phytotoxicity rating 0-100 at 14 days after application
Outline: as §1

[11] = system: upland rice (Oryza sp., var. Tebonnet, RICE); experiment: Pre-emerge test, crop safety; conditions: crop damage, pre-emerge, phytotoxicity rating 0-100 at 14 days after application
Outline: as §1

[12] = system: barnyardgrass (Echinochloa crus-galli, ECHCG); experiment: Post-emerge test, greenhouse herbicide activity screening; conditions: post-emerge, phytotoxicity rating 0-100 at 14 days after application
Outline: (§2)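 Compounds in acetone were track-sprayed at 15-1000 g ai/ha (187 l/ha) on sandy loam pots: pre-emerge one day after seeding, post-emerge at 2-3 leaf stage with 0.25% v/v non-ionic surfactant. Phytotoxicity was rated 14 days later on a 0 (no damage) to 100 (complete death) scale.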

[13] = system: green foxtail (Setaria viridis, SETVI); experiment: as above; conditions: post-emerge, phytotoxicity rating 0-100 at 14 days after application
Outline: as §2

[14] = system: ivyleaf morningglory (Ipomoea hederacea, IPOHE); experiment: as above; conditions: post-emerge, phytotoxicity rating 0-100 at 14 days after application
Outline: as §2

[15] = system: johnsongrass (Sorghum halepense, SORHA); experiment: as above; conditions: post-emerge, phytotoxicity rating 0-100 at 14 days after application
Outline: as §2

[16] = system: lambsquarters (Chenopodium album, CHEAL); experiment: as above; conditions: post-emerge, phytotoxicity rating 0-100 at 14 days after application
Outline: as §2

[17] = system: large crabgrass (Digitaria sanguinalis, DIGSA); experiment: as above; conditions: post-emerge, phytotoxicity rating 0-100 at 14 days after application
Outline: as §2

[18] = system: redroot pigweed (Amaranthus retroflexus, AMARE); experiment: as above; conditions: post-emerge, phytotoxicity rating 0-100 at 14 days after application
Outline: as §2

[19] = system: sicklepod (Cassia obtusifolia, CASOB); experiment: as above; conditions: post-emerge, phytotoxicity rating 0-100 at 14 days after application
Outline: as §2

[20] = system: velvetleaf (Abutilon theophrasti, ABUTH); experiment: as above; conditions: post-emerge, phytotoxicity rating 0-100 at 14 days after application
Outline: as §2

[21] = system: field corn (Zea mays L., var. Dekalb 535, CORN); experiment: Post-emerge test, crop safety; conditions: post-emerge, crop damage rating 0-100 at 14 days after application
Outline: (§3)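 Plants grown in 10 cm pots of sandy loam mix received acetone-dissolved compounds through a moving flat-fan nozzle. Doses ranged from 15 to 1000 g ai/ha. Pre-emerge pots were seeded one day earlier, post-emerge pots 8–21 days earlier. Fourteen days on, each pot was graded 0–100 for damage.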

[22] = system: upland rice (Oryza sp., var. Tebonnet, RICE); experiment: Post-emerge test, crop safety; conditions: post-emerge, crop damage rating 0-100 at 14 days after application
Outline: as §3

Compound: O=C(Nc1cc(Cl)ccc1N1C(=O)C2=C(CCCC2)C1=O)c1ccc2ccccc2c1 [8-36]
- Pre-emerge Herbicidal Activity AMARE ([1]; rate 63 g ai/ha): 100
- Pre-emerge Herbicidal Activity AMARE ([1]; rate 250 g ai/ha): 100
- Pre-emerge Herbicidal Activity ECHCG ([2]; rate 63 g ai/ha): 0
- Pre-emerge Herbicidal Activity ECHCG ([2]; rate 250 g ai/ha): 0
- Pre-emerge Herbicidal Activity SETVI ([3]; rate 63 g ai/ha): 0
- Pre-emerge Herbicidal Activity SETVI ([3]; rate 250 g ai/ha): 30
- Pre-emerge Herbicidal Activity IPOHE ([4]; rate 63 g ai/ha): 10
- Pre-emerge Herbicidal Activity IPOHE ([4]; rate 250 g ai/ha): 20
- Pre-emerge Herbicidal Activity SORHA ([5]; rate 63 g ai/ha): 0
- Pre-emerge Herbicidal Activity SORHA ([5]; rate 250 g ai/ha): 0
- Pre-emerge Herbicidal Activity CHEAL ([6]; rate 63 g ai/ha): 100
- Pre-emerge Herbicidal Activity CHEAL ([6]; rate 250 g ai/ha): 100
- Pre-emerge Herbicidal Activity DIGSA ([7]; rate 63 g ai/ha): 0
- Pre-emerge Herbicidal Activity DIGSA ([7]; rate 250 g ai/ha): 40
- Pre-emerge Herbicidal Activity CASOB ([8]; rate 63 g ai/ha): 10
- Pre-emerge Herbicidal Activity CASOB ([8]; rate 250 g ai/ha): 30
- Pre-emerge Herbicidal Activity ABUTH ([9]; rate 63 g ai/ha): 80
- Pre-emerge Herbicidal Activity ABUTH ([9]; rate 250 g ai/ha): 30
- Pre-emerge Herbicidal Activity CORN ([10]; rate 63 g ai/ha): 0
- Pre-emerge Herbicidal Activity CORN ([10]; rate 250 g ai/ha): 0
- Pre-emerge Herbicidal Activity RICE ([11]; rate 63 g ai/ha): 20
- Pre-emerge Herbicidal Activity RICE ([11]; rate 250 g ai/ha): 40
- Post-emerge Herbicidal Activity ECHCG ([12]; 63 g ai/ha): 0
- Post-emerge Herbicidal Activity ECHCG ([12]; 250 g ai/ha): 20
- Post-emerge Herbicidal Activity SETVI ([13]; 63 g ai/ha): 10
- Post-emerge Herbicidal Activity SETVI ([13]; 250 g ai/ha): 10
- Post-emerge Herbicidal Activity IPOHE ([14]; 63 g ai/ha): 100
- Post-emerge Herbicidal Activity IPOHE ([14]; 250 g ai/ha): 85
- Post-emerge Herbicidal Activity SORHA ([15]; 63 g ai/ha): 0
- Post-emerge Herbicidal Activity SORHA ([15]; 250 g ai/ha): 10
- Post-emerge Herbicidal Activity CHEAL ([16]; 63 g ai/ha): 95
- Post-emerge Herbicidal Activity CHEAL ([16]; 250 g ai/ha): 100
- Post-emerge Herbicidal Activity DIGSA ([17]; 63 g ai/ha): 10
- Post-emerge Herbicidal Activity DIGSA ([17]; 250 g ai/ha): 5
- Post-emerge Herbicidal Activity AMARE ([18]; 63 g ai/ha): 95
- Post-emerge Herbicidal Activity AMARE ([18]; 250 g ai/ha): 90
- Post-emerge Herbicidal Activity CASOB ([19]; 63 g ai/ha): 70
- Post-emerge Herbicidal Activity CASOB ([19]; 250 g ai/ha): 95
- Post-emerge Herbicidal Activity ABUTH ([20]; 63 g ai/ha): 100
- Post-emerge Herbicidal Activity ABUTH ([20]; 250 g ai/ha): 100
- Post-emerge Herbicidal Activity CORN ([21]; 63 g ai/ha): 10
- Post-emerge Herbicidal Activity CORN ([21]; 250 g ai/ha): 15
- Post-emerge Herbicidal Activity RICE ([22]; 63 g ai/ha): 10
- Post-emerge Herbicidal Activity RICE ([22]; 250 g ai/ha): 20
